Biological target: T1, Na^+ /H^+ exchanger (Rattus norvegicus, UniProt P26431)
T1 construct: endogenous in cells; host or cells: thymocytes freshly isolated from the thymus of a male SD (Sprague-Dawley) rat
Assay: Inhibitory activity on Na^+ /H^+ exchange in cells (thymocyte swelling in sodium propionate medium)
Type: cell-based
Conditions: apparent Ki, Lineweaver-Burk plot; rate of swelling of thymocytes (male SD strain); sodium-propionate medium pH 6.8; 0.1% DMSO; 3-5 concentrations
Protocol: [2] Inhibitory activity on Na^+ /H^+ exchange in cells
Procedure was carried out according to a similar manner to the method described in Enzymology 173, 777 (1989).
One male SD strain weighing 250-300 g was sacrificed with the blow on the head. Then, the thymus was removed into ice-cold NaCl medium (140 mM sodium chloride, 1 mM potassium chloride, 1 mM calcium chloride, 1 mM magnesium chloride, 10 mM glucose and 20 mM N-2-hydroxyethylpiperazine-N'-2-ethanesulfonic acid (HEPES) - - - pH 7.3), cut in small fragments, and transferred to glass homogenizer. The cells were dissociated by gentle strokes, and the resulting suspension was filtrated through six layers of surgical gauze and the filtrate was centrifuged at 4° C. at 1000 g for 5 minutes. The pellet was resuspended in RPMI 1640 medium (pH 7.3) at room temperature to adjust final cell concentration (1×10^7 cells/ml).
This method detects the swelling that accompanies activation of Na^+ /H^+ exchanger in cells incubated with sodium propionate. Propionic acid rapidly penetrates through the membrane. […]
Cell sizing and counting were performed electrically with the Coulter Counter-Channelyzer (AT-II). […] Rate of Swelling (volume/min.) was measured by using 3-5 concentrations of test compound. Then, apparent Ki value of test compound was calculated by using Line weaver-Burk plot.

T1 sequence (P26431 whole entry): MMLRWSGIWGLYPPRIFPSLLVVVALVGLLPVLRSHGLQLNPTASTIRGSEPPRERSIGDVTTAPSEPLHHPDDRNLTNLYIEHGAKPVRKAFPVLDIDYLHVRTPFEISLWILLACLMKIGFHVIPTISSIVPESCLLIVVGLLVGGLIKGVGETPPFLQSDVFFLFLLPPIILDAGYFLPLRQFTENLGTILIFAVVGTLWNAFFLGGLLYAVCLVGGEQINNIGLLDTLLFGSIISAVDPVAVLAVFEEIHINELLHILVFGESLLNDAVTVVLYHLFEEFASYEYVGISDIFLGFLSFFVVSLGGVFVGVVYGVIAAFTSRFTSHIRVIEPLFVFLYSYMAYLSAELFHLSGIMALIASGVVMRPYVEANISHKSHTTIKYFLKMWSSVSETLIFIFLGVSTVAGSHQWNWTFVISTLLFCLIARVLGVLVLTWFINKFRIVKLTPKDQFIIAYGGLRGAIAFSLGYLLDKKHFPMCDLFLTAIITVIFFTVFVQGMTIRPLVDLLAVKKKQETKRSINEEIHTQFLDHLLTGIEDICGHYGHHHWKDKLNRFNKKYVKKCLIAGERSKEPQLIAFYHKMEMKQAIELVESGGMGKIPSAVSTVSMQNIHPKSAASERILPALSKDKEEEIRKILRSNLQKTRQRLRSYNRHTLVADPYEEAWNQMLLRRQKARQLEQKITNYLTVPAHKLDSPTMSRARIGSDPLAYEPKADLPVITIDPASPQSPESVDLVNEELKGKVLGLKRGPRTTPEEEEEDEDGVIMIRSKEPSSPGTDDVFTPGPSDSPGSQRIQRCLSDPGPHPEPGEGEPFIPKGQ

Ki: < 100 nM
Structure (SMILES): CS(=O)(=O)c1cc(C(=O)N=C(N)N)cc(-n2cccc2)c1 [Test compound (a), 2-[3-Methylsulfonyl-5-(pyrrol-1-yl)benzoyl]guanidine]

Source: patent publication US5824691A, “Guanidine derivatives as inhibitors of Na^+ /H^+ exchange in cells” (Fujisawa Pharmaceutical Co., Ltd., priority 1993, dated 1998)
